Laboratory results published in US6780414B2 (priority 1998, dated 2004).

Biological target: T1, BFT (Bacteroides fragilis, UniProt P54355)
T1 sequence (P54355 26-405): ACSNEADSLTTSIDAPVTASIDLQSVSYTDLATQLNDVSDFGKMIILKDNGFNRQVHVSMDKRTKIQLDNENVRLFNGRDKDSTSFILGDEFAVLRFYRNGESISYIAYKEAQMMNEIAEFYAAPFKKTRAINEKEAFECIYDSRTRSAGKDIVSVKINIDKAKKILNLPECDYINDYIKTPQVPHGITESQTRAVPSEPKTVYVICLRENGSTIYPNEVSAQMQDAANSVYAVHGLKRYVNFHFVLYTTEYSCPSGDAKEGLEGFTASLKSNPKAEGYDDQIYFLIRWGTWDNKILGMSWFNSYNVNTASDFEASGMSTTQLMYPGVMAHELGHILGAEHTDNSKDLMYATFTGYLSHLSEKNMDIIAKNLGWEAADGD
Type: cell-based, Bacterioides fragilis

NCCCCCN [cadaverine, 1,5-diaminopentane]
Effect of Cadaverine, enterotoxicity in Ussing chambers: completely | ΔIsc + cadaverine: 21.5
